Test results reported in US20250197387A1, “BCL-XL DEGRADERS AND USES THEREOF” (Kymera Therapeutics, Inc., priority 2021, published 2025).
pIC50: −log10 of the molar value. Where two headings read alike, the source gives them in different places.

How the values were obtained:
Format in all cases: cell-based
BCL-XL [1] = biological target: T1, BCL-XL (Homo sapiens, UniProt Q07817); assay: Bcl-xL ELISA degradation in MOLT-4 cells, 6 h; conditions: for DC50: read-out: Bcl-xL ELISA in MOLT-4 degradation 6 h: Mean external-Abs DC50
T1 construct: endogenous in cells; host or cells: MOLT-4
Method: The letter codes for BCL-XL DC50 include: A (<0.01 μM); B (0.01-0.1 μM); C (>[…]); D (>0.5-1.0 μM); and E (>1.0 μM). The letter codes for Dmax % include A (>75%); B (50 to 75%); C (<50%).

Caki-2 cells = assay: CTG (CellTiter-Glo) cell viability assay, Caki-2; conditions: Homo sapiens, 72 h, 3 day incubation, read-out: CTG Chempartner - Caki-2 3 day: Average external-IC50
Method: Compound-mediated viability effect on MOLT-4 and Caki-2 was quantitatively determined using the CellTiter-Glo® Luminescent Cell Viability Assay kit from Promega (Catalog number G7570) following manufacturer's recommended procedures. Briefly, MOLT-4 and Caki-2 cells were seeded into 384 well plates (Grenier Bio-One, Catalog number 781080) with a density of 10,000 cells per well. Compounds were then added to the assay plate with final top concentration of 10 μM and 1:3 dilution series with total of 9 doses. The final DMSO concentration is normalized to 0.2%. The assay plates were incubated at 37° C., for 3 days under 5% CO2. Then the assay plate was equilibrated at room temperature for 10 minutes. To determine cell viability, 30 uL CellTiter Glo reagent was added to each well and the assay plate was centrifuged at 1000 rpm for 30 second, incubated at room temperature for 10 min, and analyzed by detecting the luminescence using a multimode plate reader (EnVision 2105, PerkinElmer). The data was then analyzed by software Prism 7.0 from GraphPad and the dose response curves are fit using a three-parameter logistic equation to calculate IC50.
The letter codes for MOLT-4 IC50 include: A (<0.1 μM); B (0.1-1.0 μM); C (>1.0-3.0 μM); and D (>3.0 μM). The letter codes for Caki-2 IC50 include: A (<0.1 μM); B (0.1-1.0 μM); C (>1.0-10.0 μM); and D (>10.0 μM).

MOLT-4 cells = assay: CTG (CellTiter-Glo) cell viability assay, MOLT-4; conditions: Homo sapiens, 3 day incubation, read-out: CTG Cell Viability Assay - MOLT-4 3 day: Average external-IC50
Method in brief: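 MOLT-4 and Caki-2 cells at 10,000 cells/well exposed 3 days at 37° C., 5% CO2 to 9 doses (1:3, top 10 μM, 0.2% DMSO). Viability by CellTiter-Glo luminescence; IC50 from three-parameter logistic fit.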

BCL-XL [2] = biological target: T1, BCL-XL; assay: BCL-XL degradation assay, western blot in MOLT-4 cells, 16 h; conditions: western blot, MOLT-4 cells, 16 h
Method in brief: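 MOLT-4 cells treated with compounds at 0.02-10 μM final for 16 hr at 37° C; lysates analysed by western blot with anti-BCL-xL, beta-actin and GAPDH loading controls, infrared imaging and densitometry; DC50 and Dmax % reported as letter codes.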

T1 sequence (Q07817 whole entry): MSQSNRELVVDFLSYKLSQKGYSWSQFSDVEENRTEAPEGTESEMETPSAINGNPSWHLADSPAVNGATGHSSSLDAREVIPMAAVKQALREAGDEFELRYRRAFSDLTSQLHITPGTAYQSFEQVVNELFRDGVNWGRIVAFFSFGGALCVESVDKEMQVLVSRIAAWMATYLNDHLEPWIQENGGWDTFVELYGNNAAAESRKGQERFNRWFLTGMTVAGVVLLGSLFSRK

Compound	Dmax (BCL-XL [1]) [%]	DC50 (BCL-XL [1]) [nM]	pIC50 (MOLT-4 cells; MOLT-4, 72 h)	Dmax (BCL-XL [2]; read-out: Bcl-xL WB in MOLT-4 degradation 16 h: Average Dmax %) [%]	DC50 (BCL-XL [2]; read-out: Bcl-xL WB in MOLT-4 degradation 16 h: Mean external-Abs DC50) [nM]	pIC50 (Caki-2 cells)	pIC50 (MOLT-4 cells; 72 h)
Cc1ncsc1-c1ccc(CNC(=O)[C@@H]2C[C@@H](O)CN2C(=O)[C@@H](NC(=O)C2CN(CCCS(=O)(=O)NC(=O)c3nc(N4CCc5cccc(C(=O)Nc6nc7ccccc7s6)c5C4)ccc3-c3cnn(CC4CCCCC4)c3C)C2)C(C)(C)C)cc1 [I-421]	> 75	10 to 100	5.52 to 6.00			< 5.00	
Cc1cc(N(C)c2ccc(-c3cnn(CC(C)(C)C)c3C)c(C(=O)NS(=O)(=O)c3ccc(N4CCC(C(=O)N[C@H](C(=O)N5C[C@H](O)C[C@H]5C(=O)N[C@@H](C)c5ccc(-c6scnc6C)cc5)C(C)(C)C)CC4)cc3)n2)nnc1Nc1nc2cccnc2s1 [I-456]	< 50	> 1000	< 5.52			< 5.00	
Cc1ncsc1-c1ccc([C@H](C)NC(=O)[C@@H]2C[C@@H](OC(=O)CCP(=O)(O)O)CN2C(=O)[C@@H](NC(=O)CCCS(=O)(=O)NC(=O)c2nc(N3CCc4cccc(C(=O)Nc5nc6ccccc6s5)c4C3)ccc2-c2cnn(CC3CCCCC3)c2C)C(C)(C)C)cc1 [I-411]						< 5.00	6.00 to 7.00
Cc1c(-c2ccc(N3CCc4cccc(C(=O)Nc5nc6cccnc6s5)c4C3)nc2C(=O)NS(=O)(=O)CCCCCC(=O)N[C@H](C(=O)N2C[C@H](O)C[C@H]2C(=O)N[C@@H](C)c2ccc(C#N)cc2O)C(C)(C)C)cnn1CC1CCCCC1 (single isomer, unassigned) [I-485]			< 5.52			< 5.00	
C#Cc1ccc(CNC(=O)[C@@H]2C[C@@H](O)CN2C(=O)[C@@H](NC(=O)CCCCCS(=O)(=O)NC(=O)c2nc(N3CCc4cccc(C(=O)Nc5nc6cccnc6s5)c4C3)ccc2-c2cnn(CC(C)(C)C)c2C)C(C)(C)C)cc1 [I-468]			5.52 to 6.00			< 5.00	
Cc1cc(N(C)c2ccc(-c3cnn(CC45CC6CC(CC(C6)C4)C5)c3C)c(C(=O)NS(=O)(=O)CCN3CC(C(=O)N[C@H](C(=O)N4C[C@H](O)C[C@H]4C(=O)N[C@@H](C)c4ccc(-c5scnc5C)cc4)C(C)(C)C)C3)n2)nnc1Nc1nc2ccccc2s1 [I-432]			5.52 to 6.00			< 5.00	
Cc1ncsc1-c1ccc([C@H](C)NC(=O)[C@@H]2C[C@@H](O)CN2C(=O)[C@@H](NC(=O)CCCCCS(=O)(=O)NC(=O)c2nc(N3CCc4cccc(C(=O)Nc5nc6ccccc6s5)c4C3)ccc2-c2cnn(CC3CCCCC3)c2C)C(C)(C)C)cc1 [I-118]	> 75	< 10		> 75	< 10	< 5.00	
Cc1ccc(NC(=O)c2cccc3c2CN(c2ccc(-c4cnn(CC5CCCCC5)c4C)c(C(=O)NS(=O)(=O)CCCCCC(=O)N[C@H](C(=O)N4C[C@H](O)C[C@H]4C(=O)N[C@@H](C)c4ccc(-c5scnc5C)cc4)C(C)(C)C)n2)CC3)nc1 [I-458]			< 5.52			< 5.00	
C#Cc1ccc(CNC(=O)[C@@H]2C[C@@H](O)CN2C(=O)[C@@H](NC(=O)CCCS(=O)(=O)NC(=O)c2nc(N3CCc4cccc(C(=O)Nc5nc6cccnc6s5)c4C3)ccc2-c2cnn(CC(C)C)c2C)C(C)(C)C)cc1 [I-412]			< 5.52			< 5.00	
Cc1cc(N(C)c2ccc(-c3cnn(CC4CCCC4)c3C)c(C(=O)NS(=O)(=O)c3ccc(N4CCC(C(=O)N[C@H](C(=O)N5C[C@H](O)C[C@H]5C(=O)N[C@@H](C)c5ccc(-c6scnc6C)cc5)C(C)(C)C)CC4)cc3)n2)nnc1Nc1nc2ccccc2s1 [I-441]			5.52 to 6.00			< 5.00	
Cc1cc(N(C)c2ccc(-c3cnn(CC45CC6CC(CC(C6)C4)C5)c3C)c(C(=O)NS(=O)(=O)CCCN(C)CC(=O)N[C@H](C(=O)N3C[C@H](O)C[C@H]3C(=O)N[C@@H](C)c3ccc(-c4scnc4C)cc3)C(C)(C)C)n2)nnc1Nc1nc2cccnc2s1 [I-448]			6.00 to 7.00			< 5.00	

Further lines, with some results ahead:

Dmax (BCL-XL [1]) [%]	DC50 (BCL-XL [1]) [nM]	pIC50 (MOLT-4 cells; MOLT-4, 72 h)	Dmax (BCL-XL [2]; read-out: Bcl-xL WB in MOLT-4 degradation 16 h: Average Dmax %) [%]	DC50 (BCL-XL [2]; read-out: Bcl-xL WB in MOLT-4 degradation 16 h: Mean external-Abs DC50) [nM]	Compound	pIC50 (Caki-2 cells)	pIC50 (MOLT-4 cells; 72 h)
> 75	100 to 500	6.00 to 7.00			C#Cc1ccc(CNC(=O)[C@@H]2C[C@@H](O)CN2C(=O)[C@@H](NC(=O)C2CN(CCS(=O)(=O)NC(=O)c3nc(N(C)c4cc(C)c(Nc5nc6ccccc6s5)nn4)ccc3-c3cnn(CC45CC6CC(CC(C6)C4)C5)c3C)C2)C(C)(C)C)cc1 [I-433]	< 5.00	
> 75	10 to 100	> 7.00			C#Cc1ccc(CNC(=O)[C@@H]2C[C@@H](O)CN2C(=O)[C@@H](NC(=O)CCCCS(=O)(=O)NC(=O)c2nc(N(C)c3cc(C)c(Nc4nc5ccccc5s4)nn3)ccc2-c2cnn(CC34CC5CC(CC(C5)C3)C4)c2C)C(C)(C)C)cc1 [I-369]	< 5.00	
> 75	< 10	> 7.00			C#Cc1ccc([C@H](COC)NC(=O)[C@@H]2C[C@@H](O)CN2C(=O)[C@@H](NC(=O)CCCCCS(=O)(=O)NC(=O)c2nc(N3CCc4cccc(C(=O)Nc5nc6cccnc6s5)c4C3)ccc2-c2cnn(CC3CCCCC3)c2C)C(C)(C)C)cc1 [I-478]	< 5.00	
		> 7.00			C#Cc1ccc([C@H](C)NC(=O)[C@@H]2C[C@@H](O)CN2C(=O)[C@@H](NC(=O)CCCCCS(=O)(=O)NC(=O)c2nc(N3CCc4cccc(C(=O)Nc5nc6ccccc6s5)c4C3)ccc2-c2cnn(CC(C)(C)C)c2C)C(C)(C)C)cc1 [I-470]	< 5.00	
		6.00 to 7.00			C#Cc1ccc(CNC(=O)[C@@H]2C[C@@H](O)CN2C(=O)[C@@H](NC(=O)CCNCCS(=O)(=O)NC(=O)c2nc(N(C)c3cc(C)c(Nc4nc5ccccc5s4)nn3)ccc2-c2cnn(CC34CC5CC(CC(C5)C3)C4)c2C)C(C)(C)C)c(OCCO)c1 [I-431]	< 5.00	
		6.00 to 7.00			Cc1csc(NC(=O)c2cccc3c2CN(c2ccc(-c4cnn(CC5CCCCC5)c4C)c(C(=O)NS(=O)(=O)CCCCCC(=O)N[C@H](C(=O)N4C[C@H](O)C[C@H]4C(=O)N[C@@H](C)c4ccc(-c5scnc5C)cc4)C(C)(C)C)n2)CC3)n1 [I-462]	< 5.00	
		6.00 to 7.00			Cc1ncsc1-c1ccc([C@H](C)NC(=O)[C@@H]2C[C@@H](O)CN2C(=O)[C@@H](NC(=O)CCCCCS(=O)(=O)NC(=O)c2nc(N3CCc4cccc(C(=O)NCc5cnco5)c4C3)ccc2-c2cnn(CC3CCCCC3)c2C)C(C)(C)C)cc1 [I-461]	< 5.00	
		6.00 to 7.00			Cc1ncsc1-c1ccc(CNC(=O)[C@@H]2C[C@@H](O)CN2C(=O)[C@@H](NC(=O)C2(F)CC2)C(C)(C)C)c(OCCCCCCN(C)C(=O)c2nc(N3CCc4cccc(C(=O)Nc5nc6ccccc6s5)c4C3)ccc2-c2cnn(CC3CCCCC3)c2C)c1 [I-168]	< 5.00	
		6.00 to 7.00			C#Cc1ccc([C@H](C)NC(=O)[C@@H]2C[C@@H](O)CN2C(=O)[C@@H](NC(=O)CCCCCS(=O)(=O)NC(=O)c2nc(N3CCc4cccc(C(=O)Nc5nc6cccnc6s5)c4C3)ccc2-c2cnn(CC(C)(C)C)c2C)C(C)(C)C)cc1 [I-469]	< 5.00	
		6.00 to 7.00			Cc1cc(N(C)c2ccc(-c3cnn(CC45CC6CC(CC(C6)C4)C5)c3C)c(C(=O)NS(=O)(=O)CCNCCC(=O)N[C@H](C(=O)N3C[C@H](O)C[C@H]3C(=O)N[C@@H](C)c3ccc(-c4scnc4C)cc3)C(C)(C)C)n2)nnc1Nc1nc2ccccc2s1 [I-427]	< 5.00	
		6.00 to 7.00			C#Cc1ccc(CNC(=O)[C@@H]2C[C@@H](O)CN2C(=O)[C@@H](NC(=O)CCCCCS(=O)(=O)NC(=O)c2nc(N(C)c3cc(C)c(Nc4nc5ccccc5s4)nn3)ccc2-c2cnn(CC(C)(C)C)c2C)C(C)(C)C)cc1 [I-472]	< 5.00	
		6.00 to 7.00			Cc1cc(N(C)c2ccc(-c3cnn(CC45CC6CC(CC(C6)C4)C5)c3C)c(C(=O)NS(=O)(=O)CCCCCC(=O)N[C@H](C(=O)N3C[C@H](O)C[C@H]3C(=O)N[C@@H](C)c3ccc(-c4scnc4C)cc3)C(C)(C)C)n2)nnc1Nc1nc2cccnc2s1 [I-439]	< 5.00	
		> 7.00			Cc1cc(N2CC(C(=O)N[C@H](C(=O)N3C[C@H](O)C[C@H]3C(=O)NCc3ccc(-c4scnc4C)cc3)C(C)(C)C)C2)ccc1S(=O)(=O)NC(=O)c1nc(N(C)c2cc(C)c(Nc3nc4ccccc4s3)nn2)ccc1-c1cnn(CC23CC4CC(CC(C4)C2)C3)c1C [I-435]	< 5.00	
